# Data: patent publication US5840684A, “Glycopeptide antibiotic derivatives” (Eli Lilly and Company, priority 1995, dated 1998)
# Experiments:
# [1] = test system: Staphylococcus aureus S13E; type: cell-based
# Method: (§1) The MIC's were determined using a standard broth micro-dilution assay.
# [2] = test system: Staphylococcus aureus SA1199B; type: cell-based
# Method: as §1
# [3] = test system: Entercoccus faecium 180-1; assay: broth micro-dilution MIC; type: cell-based
# Method: as §1
# [4] = test system: Staphylococcus aureus 446; assay: broth micro-dilution MIC; type: cell-based
# Method: as §1
# [5] = test system: Staphylococcus aureus 447; assay: broth micro-dilution MIC; type: cell-based
# Method: as §1
# [6] = test system: Staphylococcus aureus SA1199A; assay: broth micro-dilution MIC; type: cell-based
# Method: as §1
# [7] = test system: Staphylococcus aureus SA1199; assay: broth micro-dilution MIC; type: cell-based
# Method: as §1
# [8] = test system: Staphylococcus aureus X400; assay: broth micro-dilution MIC; type: cell-based
# Method: as §1
# [9] = test system: Staphylococcus aureus X778; assay: broth micro-dilution MIC; type: cell-based
# Method: as §1
# [10] = test system: Streptococcus pyogenes C203; assay: broth micro-dilution MIC; type: cell-based
# Method: as §1
# Entercoccus faecium 180 = assay: broth micro-dilution MIC; type: cell-based; settings: Entercoccus faecium 180
# Method: (§2) The formula I compounds have in vitro and in vivo activity against Gram-positive pathogenic bacteria. The MIC's were determined using a standard broth micro-dilution assay.
# Entercoccus faecium 2041 = assay: broth micro-dilution MIC; type: cell-based; settings: Entercoccus faecium 2041
# Method: as §2
# [11] = test system: Enterococcus gallinarum 245; assay: broth micro-dilution MIC; type: cell-based; settings: Enterococcus gallinarum 245
# Method: as §2
# [12] = test system: Haemophilus influenzae RD; assay: broth micro-dilution MIC; type: cell-based; settings: Haemophilus influenzae RD
# Method: as §2
# [13] = test system: Staphylococcus haemolyticus 105; assay: broth micro-dilution MIC; type: cell-based
# Method: as §2
# [14] = test system: Staphylococcus haemolyticus 415; assay: broth micro-dilution MIC; type: cell-based
# Method: as §2
# [15] = test system: Streptococcus pneumoniae P1; assay: broth micro-dilution MIC; type: cell-based
# Method: as §2
# [16] = test system: vancomycin-resistant enterococci; assay: broth micro-dilution, mean geometric MIC; type: cell-based, Enterococcus faecium and Enterococcus faecalis; settings: enterococci, 24-hour incubation
# [17] = test system: vancomycin-susceptible enterococci; assay: broth micro-dilution, mean geometric MIC; type: cell-based, Enterococcus faecium and Enterococcus faecalis; settings: enterococci, 24-hour incubation
# Entercoccus faecium 276 = assay: broth micro-dilution MIC; type: cell-based
# Method: as §1
# [18] = test system: Staphylococcus aureus 489; assay: broth micro-dilution MIC; type: cell-based
# Method: as §1
# [19] = test system: Staphylococcus epidermidis 270; assay: broth micro-dilution MIC; type: cell-based
# Method: as §2
# [20] = test system: Staphylococcus aureus 491; assay: broth micro-dilution MIC; type: cell-based
# Method: as §1
SMILES,MIC [1] [µg/mL],MIC [2] [µg/mL],MIC [3] [µg/mL],MIC [4] [µg/mL],MIC [5] [µg/mL],MIC [6] [µg/mL],MIC [7] [µg/mL],MIC [8] [µg/mL],MIC [9] [µg/mL],MIC [10] [µg/mL],MIC (Entercoccus faecium 180) [µg/mL],MIC (Entercoccus faecium 2041) [µg/mL],MIC [11] [µg/mL],MIC [12] [µg/mL],MIC [13] [µg/mL],MIC [14] [µg/mL],MIC [15] [µg/mL],"mean geometric MIC, Vancomycin Resistant Strains [16] [µg/mL]","mean geometric MIC, Vancomycin Sensitive Strains [17] [µg/mL]",MIC (Entercoccus faecium 276) [µg/mL],further results
CNC(CC(C)C)C(=O)NC1C(=O)NC(CC(N)=O)C(=O)NC2C(=O)NC3C(=O)NC(C(=O)NC(C(=O)O)c4cc(O)cc(O)c4-c4cc3ccc4O)C(OC3CC(C)(N)C(O)C(C)O3)c3ccc(c(Cl)c3)Oc3cc2cc(c3OC2OC(CO)C(O)C(O)C2OC2CC(C)(NCc3ccc(-c4ccc(C)c(C)c4)cc3)C(O)C(C)O2)Oc2ccc(cc2Cl)C1O (centres unmarked) [Compound 221],0.5,1,≤ 0.06,1,0.5,≤ 0.06,1,0.5,0.5,≤ 0.06,≤ 0.06,≤ 0.06,2,32,1,2,≤ 0.06,0.71,0.041,,
CNC(CC(C)C)C(=O)NC1C(=O)NC(CC(N)=O)C(=O)NC2C(=O)NC3C(=O)NC(C(=O)NC(C(=O)O)c4cc(O)cc(O)c4-c4cc3ccc4O)C(OC3CC(C)(N)C(O)C(C)O3)c3ccc(c(Cl)c3)Oc3cc2cc(c3OC2OC(CO)C(O)C(O)C2OC2CC(C)(NCc3c(OC)ccc4ccccc34)C(O)C(C)O2)Oc2ccc(cc2Cl)C1O (centres unmarked) [Compound 9],0.5,,≤ 0.06,2,4,≤ 0.06,,0.5,,≤ 0.06,1,,,≤ 0.06,4,4,≤ 0.06,11,0.38,0.26,MIC [18]: 0.5 µg/mL; MIC [19]: 16 µg/mL
CNC(CC(C)C)C(=O)NC1C(=O)NC(CC(N)=O)C(=O)NC2C(=O)NC3C(=O)NC(C(=O)NC(C(=O)O)c4cc(O)cc(O)c4-c4cc3ccc4O)C(OC3CC(C)(N)C(O)C(C)O3)c3ccc(c(Cl)c3)Oc3cc2cc(c3OC2OC(CO)C(O)C(O)C2OC2CC(C)(NCc3ccc(-c4ccc(C)cc4)cc3C)C(O)C(C)O2)Oc2ccc(cc2Cl)C1O (centres unmarked) [Compound 222],≤ 0.06,,≤ 0.06,,0.5,,1,,≤ 0.06,≤ 0.06,≤ 0.06,≤ 0.06,1,32,1,1,≤ 0.06,0.84,0.072,≤ 0.06,MIC [19]: 0.5 µg/mL
CNC(CC(C)C)C(=O)NC1C(=O)NC(CC(N)=O)C(=O)NC2C(=O)NC3C(=O)NC(C(=O)NC(C(=O)O)c4cc(O)cc(O)c4-c4cc3ccc4O)C(OC3CC(C)(N)C(O)C(C)O3)c3ccc(c(Cl)c3)Oc3cc2cc(c3OC2OC(CO)C(O)C(O)C2OC2CC(C)(NCc3ccc(-c4cccc(C)c4)cc3)C(O)C(C)O2)Oc2ccc(cc2Cl)C1O (centres unmarked) [Compound 224],,0.5,≤ 0.06,0.5,0.5,≤ 0.06,,,,≤ 0.06,≤ 0.06,≤ 0.06,0.5,32,1,0.5,≤ 0.06,0.63,0.055,≤ 0.06,
CCCCCC#Cc1ccc(CNC2(C)CC(OC3C(Oc4c5cc6cc4Oc4ccc(cc4Cl)C(OC4CC(C)(N)C(O)C(C)O4)C4NC(=O)C(NC(=O)C6NC(=O)C(CC(N)=O)NC(=O)C(NC(=O)C(CC(C)C)NC)C(O)c6ccc(c(Cl)c6)O5)c5ccc(O)c(c5)-c5c(O)cc(O)cc5C(C(=O)O)NC4=O)OC(CO)C(O)C3O)OC(C)C2O)cc1 (centres unmarked) [Compound 227],4,4,≤ 0.06,2,2,0.6,4,1,4,≤ 0.06,0.25,0.25,4,,2,4,≤ 0.06,0.71,0.11,0.5,MIC [18]: 2 µg/mL; MIC [20]: 2 µg/mL; MIC [19]: 2 µg/mL
CNC(CC(C)C)C(=O)NC1C(=O)NC(CC(N)=O)C(=O)NC2C(=O)NC3C(=O)NC(C(=O)NC(C(=O)O)c4cc(O)cc(O)c4-c4cc3ccc4O)C(OC3CC(C)(N)C(O)C(C)O3)c3ccc(c(Cl)c3)Oc3cc2cc(c3OC2OC(CO)C(O)C(O)C2OC2CC(C)(NCc3ccc4c(c3)CCc3ccccc3-4)C(O)C(C)O2)Oc2ccc(cc2Cl)C1O (centres unmarked) [Compound 220],0.5,0.5,≤ 0.06,1,0.5,≤ 0.06,1,0.5,0.5,≤ 0.06,0.125,≤ 0.06,0.5,,0.5,0.5,≤ 0.06,0.71,0.05,0.125,MIC [18]: 0.5 µg/mL; MIC [20]: ≤ 0.06 µg/mL; MIC [19]: 1 µg/mL
CNC(CC(C)C)C(=O)NC1C(=O)NC(CC(N)=O)C(=O)NC2C(=O)NC3C(=O)NC(C(=O)NC(C(=O)O)c4cc(O)cc(O)c4-c4cc3ccc4O)C(OC3CC(C)(N)C(O)C(C)O3)c3ccc(c(Cl)c3)Oc3cc2cc(c3OC2OC(CO)C(O)C(O)C2OC2CC(C)(NCc3ccc(N(C)c4ccccc4)cc3)C(O)C(C)O2)Oc2ccc(cc2Cl)C1O (centres unmarked) [Compound 178],0.5,1,≤ 0.06,1,0.5,≤ 0.06,1,,1,≤ 0.06,0.25,≤ 0.06,2,4,1,2,≤ 0.06,2.8,0.13,0.5,MIC [19]: 0.25 µg/mL
CNC(CC(C)C)C(=O)NC1C(=O)NC(CC(N)=O)C(=O)NC2C(=O)NC3C(=O)NC(C(=O)NC(C(=O)O)c4cc(O)cc(O)c4-c4cc3ccc4O)C(OC3CC(C)(N)C(O)C(C)O3)c3ccc(c(Cl)c3)Oc3cc2cc(c3OC2OC(CO)C(O)C(O)C2OC2CC(C)(NCCCCCCCCOc3ccc(OC)cc3)C(O)C(C)O2)Oc2ccc(cc2Cl)C1O (centres unmarked) [Compound 200],0.5,1,≤ 0.06,1,0.5,≤ 0.06,1,1,0.5,≤ 0.06,,≤ 0.06,2,32,1,2,≤ 0.06,1.4,0.041,0.5,
